Laboratory results taken from US8748461B2, “Metalloenzyme inhibitor compounds” (Viamet Pharmaceuticals, Inc., priority 2011, dated 2014).
≈ marks a conversion by molar mass, not a printed value.

How the values were obtained:
[1] = test system: Septoria tritici (ATCC 26517); assay: Minimum Inhibitory Concentration (MIC) vs. Septoria tritici; type: cell-based; settings: Zymoseptoria tritici, ATCC26517, 168 h; 50% reduction in growth of S. tritici; 22° C., seven days; read-out: Septoria Rating (MIC)
Summary of the method: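 Growth inhibition of S. tritici by CLSI-based filamentous-fungus microdilution, 2-fold series 16 to 0.016 μg/mL in RPMI-1640/MOPS with 2% DMSO. Inoculum approximately 5×10^4 cfu/mL; plates incubated 22° C, seven days, dark, unshaken.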

[2] = test system: Puccinia recondita tritici = Puccinia triticina; assay: Fungicidal activity vs. leaf rust on wheat plants; type: in vivo; settings: 50 ppm spray on wheat (Yuma), inoculated the following day, evaluated 7-9 days later; read-out: Puccinia Rating (% Disease Control @ 50 ppm)
Description: D. Evaluation of Fungicidal Activity Vs. Leaf Rust (Causal Agent Puccinia recondita Tritici=Puccinia triticina; Bayer code PUCCRT). […] Each pot contained 3-8 seedlings. These plants were sprayed until wet with the formulated test compounds. The compounds were formulated at 50 ppm in 10 vol. % acetone plus 90 vol. % Triton X water (deionized water 99.99 wt %+0.01 wt % Triton X100), giving a “formulated test compound.” Formulated test compounds were applied to plants using a turn table sprayer fitted with two opposing air atomization nozzles which delivered approximately 1500 L/ha of spray volume. On the following day, the leaves were inoculated with an aqueous spore suspension of Puccinia recondita tritici and the plants were kept in high humidity overnight to permit spores to germinate and infect the leaf. The plants were then transferred to a greenhouse until disease developed on untreated control plants. Disease severity was evaluated 7-9 days later, depending on the speed of disease development. In each case of Table 3, the Puccinia rating scale is as follows: […]

| Compound | MIC [1] [µg/mL] | pest or weed control at 50 ppm [2] [%] |
| --- | --- | --- |
| OC(Cn1cnnn1)(c1ccc(F)cc1F)C(F)(F)c1ccc(Oc2ccc(F)c(F)c2)cn1 (stereo not shown) [Compound 86, 1-(5-(3,4-Difluorophenoxy)pyridin-2-yl)-2-(2,4-difluorophenyl)-1,1-difluoro-3-(1H-tetrazol-1-yl)propan-2-ol] | ≤ 0.5 | 80 to 100 |
| OC(Cn1cnnn1)(c1ccc(F)cc1F)C(F)(F)c1ccc(OCC(F)(F)c2ccccc2)cn1 (stereo not shown) [Compound 119, 1-(5-(2,2-difluoro-2-phenylethoxy)pyridin-2-yl)-2-(2,4-difluorophenyl)-1,1-difluoro-3-(1H-tetrazol-1-yl)propan-2-ol] | ≤ 0.5 | 80 to 100 |
| OC(Cn1cnnn1)(c1ccc(F)cc1F)C(F)(F)c1ccc(OCC(F)c2ccc(OC(F)F)cc2)cn1 (stereo not shown) [Compound 124, 1-(5-(2-(4-(difluoromethoxy)phenyl)-2-fluoroethoxy)pyridin-2-yl)-2-(2,4-difluorophenyl)-1,1-difluoro-3-(1H-tetrazol-1-yl)propan-2-ol] | ≤ 0.5 | 80 to 100 |
| OC(Cn1cnnn1)(c1ccc(F)cc1F)C(F)(F)c1ccc(OCc2cccc(C(F)(F)F)c2)cn1 (stereo not shown) [Compound 26, 2-(2,4-Difluorophenyl)-1,1-difluoro-3-(1H-tetrazol-1-yl)-1-(5-((3-(trifluoromethyl)benzyl)oxy)pyridin-2-yl)propan-2-ol] | ≤ 0.5 | 80 to 100 |
| N#Cc1ccc(COc2ccc(C(F)(F)C(O)(Cn3cnnn3)c3ccc(F)cc3F)nc2)cc1 (stereo not shown) [Compound 9, 4-(((6-(2-(2,4-Difluorophenyl)-1,1-difluoro-2-hydroxy-3-(1H-tetrazol-1-yl)propyl)pyridin-3-yl)oxy)methyl)benzonitrile] | ≤ 0.5 | 80 to 100 |
| N#Cc1cnc(Oc2ccc(C(F)(F)C(O)(Cn3cnnn3)c3ccc(F)cc3F)nc2)s1 (stereo not shown) [Compound 107, 2-((6-(2-(2,4-difluorophenyl)-1,1-difluoro-2-hydroxy-3-(1H-tetrazol-1-yl)propyl)pyridin-3-yl)oxy)thiazole-5-carbonitrile] | ≤ 0.5 | < 40 |
| COc1ccc(Oc2ccc(C(F)(F)C(O)(Cn3cnnn3)c3ccc(F)cc3F)nc2)cc1 (stereo not shown) [Compound 87, 2-(2,4-Difluorophenyl)-1,1-difluoro-1-(5-(4-methoxyphenoxy)pyridin-2-yl)-3-(1H-tetrazol-1-yl)propan-2-ol] | > 4 | 80 to 100 |
| N#Cc1ccc(CSc2ccc(C(F)(F)C(O)(Cn3cnnn3)c3ccc(F)cc3F)nc2)c(F)c1 (stereo not shown) [Compound 15, 4-(((6-(2-(2,4-Difluorophenyl)-1,1-difluoro-2-hydroxy-3-(1H-tetrazol-1-yl)propyl)pyridin-3-yl)thio)methyl)-3-fluorobenzonitrile] | ≤ 0.5 | 40 to 59 |
| N#Cc1ccc(C(F)(F)COc2ccc(C(F)(F)C(O)(Cn3cnnn3)c3ccc(F)cc3F)nc2)cc1 (stereo not shown) [Compound 121, 4-(2-((6-(2-(2,4-difluorophenyl)-1,1-difluoro-2-hydroxy-3-(1H-tetrazol-1-yl)propyl)pyridin-3-yl)oxy)-1,1-difluoroethyl)benzonitrile] | ≤ 0.5 | 80 to 100 |
| CC(Oc1ccc(C(F)(F)C(O)(Cn2cnnn2)c2ccc(F)cc2F)nc1)C(F)(F)F (stereo not shown) [Compound 47, 2-(2,4-Difluorophenyl)-1,1-difluoro-3-(1H-tetrazol-1-yl)-1-(5-((1,1,1-trifluoropropan-2-yl)oxy)pyridin-2-yl)propan-2-ol] | ≤ 0.5 | 80 to 100 |
| N#Cc1cc(COc2ccc(C(F)(F)C(O)(Cn3cnnn3)c3ccc(F)cc3F)nc2)ccc1F (stereo not shown) [Compound 65, 5-(((6-(2-(2,4-Difluorophenyl)-1,1-difluoro-2-hydroxy-3-(1H-tetrazol-1-yl)propyl)pyridin-3-yl)oxy)methyl)-2-fluorobenzonitrile] | ≤ 0.5 | 80 to 100 |
| N#Cc1cccc(COc2ccc(C(F)(F)C(O)(Cn3cnnn3)c3ccc(F)cc3F)nc2)c1 (stereo not shown) [Compound 52, 3-(((6-(2-(2,4-Difluorophenyl)-1,1-difluoro-2-hydroxy-3-(1H-tetrazol-1-yl)propyl)pyridin-3-yl)oxy)methyl)benzonitrile] | ≤ 0.5 | 80 to 100 |
| OC(Cn1cnnn1)(c1ccc(Cl)cc1F)C(F)(F)c1ccc(OCC(F)(F)F)cn1 (stereo not shown) [Compound 71, 2-(4-Chloro-2-fluorophenyl)-1,1-difluoro-3-(1H-tetrazol-1-yl)-1-(5-(2,2,2-trifluoroethoxy)pyridin-2-yl)propan-2-ol] | ≤ 0.5 | 80 to 100 |
| OC(Cn1cnnn1)(c1ccc(F)cc1F)C(F)(F)c1ccc(Oc2ncc(Cl)cn2)cn1 (stereo not shown) [Compound 98, 1-(5-((5-chloropyrimidin-2-yl)oxy)pyridin-2-yl)-2-(2,4-difluorophenyl)-1,1-difluoro-3-(1H-tetrazol-1-yl)propan-2-ol] | ≤ 0.5 | 80 to 100 |
| OC(Cn1cnnn1)(c1ccc(F)cc1F)C(F)(F)c1ccc(Oc2ccc(F)cc2)cn1 (stereo not shown) [Compound 6, 2-(2,4-Difluorophenyl)-1,1-difluoro-1-(5-(4-fluorophenoxy)pyridin-2-yl)-3-(1H-tetrazol-1-yl)propan-2-ol] | ≤ 0.5 | 80 to 100 |
| OC(Cn1cnnn1)(c1ccc(F)cc1F)C(F)(F)c1ccc(Oc2ccc(OC(F)(F)F)cc2)cn1 (stereo not shown) [Compound 76, 2-(2,4-Difluorophenyl)-1,1-difluoro-3-(1H-tetrazol-1-yl)-1-(5-(4-(trifluoromethoxy)phenoxy)pyridin-2-yl)propan-2-ol] | ≤ 0.5 | 80 to 100 |
| OC(Cn1cnnn1)(c1ccc(F)cc1F)C(F)(F)c1ccc(OCC(F)(F)c2ccc(Cl)cc2)cn1 (stereo not shown) [Compound 122, 1-(5-(2-(4-chlorophenyl)-2,2-difluoroethoxy)pyridin-2-yl)-2-(2,4-difluorophenyl)-1,1-difluoro-3-(1H-tetrazol-1-yl)propan-2-ol] | ≤ 0.5 | 80 to 100 |
| OC(Cn1cnnn1)(c1ccc(F)cc1F)C(F)(F)c1ccc(OCc2ccc(Cl)c(F)c2)cn1 (stereo not shown) [Compound 27, 1-(5-((4-Chloro-3-fluorobenzyl)oxy)pyridin-2-yl)-2-(2,4-difluorophenyl)-1,1-difluoro-3-(1H-tetrazol-1-yl)propan-2-ol] | ≤ 0.5 | 80 to 100 |
| OC(Cn1cnnn1)(c1ccc(F)cc1F)C(F)(F)c1ccc(Oc2ccc(Cl)cc2)cn1 (stereo not shown) [Compound 7, 1-(5-(4-Chlorophenoxy)pyridin-2-yl)-2-(2,4-difluorophenyl)-1,1-difluoro-3-(1H-tetrazol-1-yl)propan-2-ol] | ≤ 0.5 | 80 to 100 |
| OC(Cn1cnnn1)(c1ccc(F)cc1F)C(F)(F)c1ccc(OCc2ccc(C(F)(F)F)cn2)cn1 (stereo not shown) [Compound 114, 2-(2,4-difluorophenyl)-1,1-difluoro-3-(1H-tetrazol-1-yl)-1-(5-((5-(trifluoromethyl)pyridin-2-yl)methoxy)pyridin-2-yl)propan-2-ol] | ≤ 0.5 | 80 to 100 |
| OC(Cn1cnnn1)(c1ccc(F)cc1F)C(F)(F)c1ccc(OCc2ccc(Cl)nc2)cn1 (stereo not shown) [Compound 116, 1-(5-((6-chloropyridin-3-yl)methoxy)pyridin-2-yl)-2-(2,4-difluorophenyl)-1,1-difluoro-3-(1H-tetrazol-1-yl)propan-2-ol] | ≤ 0.5 | 80 to 100 |
| N#Cc1ccc(Oc2ccc(C(F)(F)C(O)(Cn3cnnn3)c3ccc(F)cc3F)nc2)c(F)c1 (stereo not shown) [Compound 89, 4-((6-(2-(2,4-Difluorophenyl)-1,1-difluoro-2-hydroxy-3-(1H-tetrazol-1-yl)propyl)pyridin-3-yl)oxy)-3-fluorobenzonitrile] | ≤ 0.5 | 80 to 100 |
| N#Cc1ccc(Oc2ccc(C(F)(F)C(O)(Cn3cnnn3)c3ccc(Cl)cc3F)nc2)cc1 (stereo not shown) [Compound 79, 4-((6-(2-(4-Chloro-2-fluorophenyl)-1,1-difluoro-2-hydroxy-3-(1H-tetrazol-1-yl)propyl)pyridin-3-yl)oxy)benzonitrile] | ≤ 0.5 | 80 to 100 |
| CC(C)Oc1ccc(C(F)(F)C(O)(Cn2cnnn2)c2ccc(F)cc2F)nc1 (stereo not shown) [Compound 42, 2-(2,4-Difluorophenyl)-1,1-difluoro-1-(5-isopropoxypyridin-2-yl)-3-(1H-tetrazol-1-yl)propan-2-ol] | 0.5 to 1.5 (≈ 1.22 to 3.65 µM) | 80 to 100 |
| OC(Cn1cnnn1)(c1ccc(F)cc1F)C(F)(F)c1ccc(OCc2cccs2)cn1 (stereo not shown) [Compound 49, 2-(2,4-Difluorophenyl)-1,1-difluoro-3-(1H-tetrazol-1-yl)-1-(5-(thiophen-2-ylmethoxy)pyridin-2-yl)propan-2-ol] | ≤ 0.5 | 80 to 100 |
| N#Cc1ccc(Oc2ccc(C(F)(F)C(O)(Cn3cnnn3)c3ccc(F)cc3F)nc2)cc1F (stereo not shown) [Compound 17, 4-((6-(2-(2,4-Difluorophenyl)-1,1-difluoro-2-hydroxy-3-(1H-tetrazol-1-yl)propyl)pyridin-3-yl)oxy)-2-fluorobenzonitrile] | ≤ 0.5 | 80 to 100 |
